Results reported in US4310523A, “Combined antiestrogens and antigonadotropically effective antiandrogens for the prophylaxis and therapy of hyperplasia of the prostate” (priority 1978, dated 1982).

What was measured:
[1] = test system: prostate hyperplasia; assay: Prostate hyperplasia in younger dogs treated with estrogen or estrogen/androgen mixture, additional treatment with anti-androgen; assay type: in vivo, dog; conditions: additional cyproterone acetate
Excerpt: Also in the dog, there is a proliferation primarily of the fibromuscular portion of the prostate. It is also possible to cause the aspects of the disease in younger dogs by treatment with an estrogen or an estrogen/androgen mixture.

[2] = test system: prostate hyperplasia; conditions: cited from earlier work
[3] = test system: hyperplastic prostate; conditions: one-year study, patients; cited from earlier work
[4] = test system: Estradiol-stimulated Uterus Weight of Infantile Mice; assay: Antiestrogenic effect on the estradiol-stimulated uterus weight of infantile mice (uterus growth test); assay type: in vivo; conditions: for Effect on uterus weight of the estradiol-stimulated uterus of infantile mice, in words: s.c., 0.3-300 μg/animal/day
Protocol: Daily for 3 days 0.03 μg of estradiol and measured dosages of the antiestrogen to be tested are simultaneously applied to castrated or infantile mice subcutaneously. The animals are killed on the fourth day, and the uteri are removed and weighed without contents (See Table 1). The same test is carried out on castrated or infantile rats using 0.1 μg of estradiol.
Antiestrogenic Effect of Ru-16117 and Tamoxifen on the Estradiol-stimulate
d Uterus Weight of Infantile Mice
(Mode of Administration: Subcutaneous - Number of Animals per Group:
Ru-16117, Tamoxifen and Estradiol are dissolved in a medium consisting of
benzylbenzoate/castor oil (1:10)

[5] = test system: vaginal epithelium (hornification); assay: Vaginal swab test of the castrated rat; assay type: in vivo; conditions: subcutaneous, 1 mg
Protocol: One example of compounds having possible antiestrogenic effects which are not included within the scope of this invention are those disclosed in U.S. Pat. No. 4,055,641 to Benson et al which are primarily anabolic androgens. For example, the compound preferred by Benson et al, 3,17-dioxoandrost-4-ene-19-al (Column 3, lines 67-68) was tested in the vaginal swab test of the castrated rat after subcutaneous application in a dosage of 1 mg. […] In addition, the compounds of Benson et al were tested on intact (not castrated) male animals or probands. These estrogenous substances acted on the prostate by removal of androgen, not by displacing estrogen as for the antiestrogens used in this invention. The difference between the antiestrogens acting through an antagonism to estrogen receptors, i.e., those used in this invention, and those which are primariy androgenic or gestogenic in activity with some simultaneous antiestrogenic effect is also discussed in Nishino, supra.

[6] = 3 μg/animal/day s.c. + 0.03 μg estradiol/animal/day, 3 days
[7] = 3 μg/animal/day s.c. + 0.03 μg estradiol/animal/day, 3 days, 8 animals per group
[8] = 30 μg/animal/day s.c. + 0.03 μg estradiol/animal/day, 3 days
[9] = 30 μg/animal/day s.c. + 0.03 μg estradiol/animal/day, 3 days, 8 animals per group

CC(=O)O[C@]1(C(C)=O)CC[C@H]2[C@@H]3C=C(Cl)C4=CC(=O)[C@@H]5C[C@@H]5[C@]4(C)[C@H]3CC[C@@]21C [cyproterone acetate, 6-chloro-17-hydroxy-1α,2α-methylenepregna-4,6-diene-3,20-dione acetate]
Effect on gland parenchyma [1]: total atrophy of the gland parenchyma
Effect on proliferation of the interstitium [1]: proliferation of the interstitium is not affected

CCCCCC(=O)O[C@]1(C(C)=O)CC[C@H]2[C@@H]3CCC4=CC(=O)CC[C@@H]4[C@H]3CC[C@@]21C [gestonorone caproate]
Maximum flow value (flow of urine per unit time) ([2]; in vivo): improved
Reduction of the size of the adenoma ([2]; in vivo): A marked reduction of the size of the adenoma, however, also cannot be achieved
Miction period ([2]; prolonged prior to treatment): markedly shortened
Effect compared with phyto-preparations ([2]; prostate hyperplasia): a better effect

CC[C@H](CC[C@@H](C)[C@H]1CC[C@H]2[C@@H]3CC=C4C[C@@H](O)CC[C@]4(C)[C@H]3CC[C@]12C)C(C)C [β-sitosterol]
Effectiveness in prostate hyperplasia [3]: ineffective

C#C[C@]1(O)CC[C@H]2[C@@H]3CCc4cc(O)ccc4[C@H]3[C@H](OC)C[C@@]21C [Ru-16117, 11α-methoxy-17α-ethynyl-1,3,5(10)-estratriene-3,17β-diol]
% Inhibition, Decrease of Uterus Weight in Comparison to Single Estradiol Administration ([4]; 0.3 μg/animal/day s.c. + 0.03 μg estradiol/animal/day, 3 days): 8%
Uterus Weight, Average Value ± Standard Deviation ([4]; 0.3 μg/animal/day s.c. + 0.03 μg estradiol/animal/day, 3 days, 8 animals per group): 60.0 ± 2.4 mg
% Inhibition, Decrease of Uterus Weight in Comparison to Single Estradiol Administration [4, 6]: 27%
Uterus Weight, Average Value ± Standard Deviation [4, 7]: 49.8 ± 1.6 mg
% Inhibition, Decrease of Uterus Weight in Comparison to Single Estradiol Administration [4, 8]: 58%
Uterus Weight, Average Value ± Standard Deviation [4, 9]: 34.3 ± 2.3 mg
Effectiveness compared with Tamoxifen ([4]; "somewhat more effective than Tamoxifen"): somewhat more
Effect on uterus weight of the estradiol-stimulated uterus of infantile mice, in words ([4]; 3 days): pronounced dosagedependent decrease in uterus weight

C[C@]12CC[C@@H]3c4ccc(O)cc4CC[C@H]3[C@@H]1CC[C@@H]2O [Estradiol]
Uterus Weight, Average Value ± Standard Deviation ([4]; single administration of 0.03 μg estradiol once daily over 3 days, s.c. (untreated control 11.8 ± 1.3)): 63.9 ± 6.2 mg

C[C@]12CC[C@H]3[C@@H](CCC4=CC(=O)CC[C@@]43C=O)[C@@H]1CCC2=O [3,17-dioxoandrost-4-ene-19-al]
Estrogenous effect [5]: strongly estrogenous effect
Hornification of the vaginal epithelium [5]: Hornification of the vaginal epitelium took place

CC/C(=C(\c1ccccc1)c1ccc(OCCN(C)C)cc1)c1ccccc1 [Tamoxifen, (Z)-2-[p-(1,2-diphenyl-1-butenyl)-phenoxy]-N,N-dimethylethylamine]
% Inhibition, Decrease of Uterus Weight in Comparison to Single Estradiol Administration [4, 6]: 11%
Uterus Weight, Average Value ± Standard Deviation [4, 7]: 57.5 ± 2.1 mg
% Inhibition, Decrease of Uterus Weight in Comparison to Single Estradiol Administration [4, 8]: 40%
Uterus Weight, Average Value ± Standard Deviation [4, 9]: 43.3 ± 3.1 mg
% Inhibition, Decrease of Uterus Weight in Comparison to Single Estradiol Administration ([4]; 100 μg/animal/day s.c. + 0.03 μg estradiol/animal/day, 3 days): 46%
Uterus Weight, Average Value ± Standard Deviation ([4]; 100 μg/animal/day s.c. + 0.03 μg estradiol/animal/day, 3 days, 8 animals per group): 39.7 ± 3.1 mg
% Inhibition, Decrease of Uterus Weight in Comparison to Single Estradiol Administration ([4]; 300 μg/animal/day s.c. + 0.03 μg estradiol/animal/day, 3 days): 58%
Uterus Weight, Average Value ± Standard Deviation ([4]; 300 μg/animal/day s.c. + 0.03 μg estradiol/animal/day, 3 days, 8 animals per group): 34.1 ± 4.3 mg
Effect on uterus weight of the estradiol-stimulated uterus of infantile mice, in words ([4]; 3 days): pronounced dosagedependent decrease in uterus weight
